Reference: patent publication US20040076659A1, “Additive for livestock feeds” (priority 1994, published 2004)

Test system: wethers
Assay: In vivo digestibility trial, timothy hay sprayed with Tween 80
Settings: sheep; about 0.3% Tween 80 in the ration
Description: Four […] weighing (72.5±15.0 kg) fitted with both rumen and duodenal cannula, were offered chopped medium quality timothy hay ad libitum. The hay was either sprayed with 500 ml water or 50 ml of […] dissolved in 500 ml of water. The feed was offered in two equal portions, at 08:30 and 20:30 hr. Water was available ad libitum. The experiment was designed as a 2×2 latin square with two 14-day adaptation, two 7-day collection periods. Estimates of the rates of passage of the two treated hays were made using chromium mordanted fibre (Cr) for the particulate phase and cobalt-ethylene diaminetetracetic acid (Co-EDTA) for the liquid phase. The method of Uden et al., “Investigation of chromium, cerium and cobalt as markers in digesta: Rate of Passage studies,” J. Sci. of Food and Agriculture 31:625-632 (1980), was used in the preparation of both markers. The sheep were adapted to the feed in individual pens, and then moved into digestibility cages for total collection and marker infusion. During the collection period, records of feed intake, faecal and urine output were maintained. 250 g subsamples of the faeces were collected daily, subsampled for DM determination, while the rest was dried under a drought oven. Urine was collected under 1N sulphuric acid. On the last day of the collection period, each sheep was given 50 g of Cr-mordanted fibre 1 hr prior to the evening feeding. In addition, 250 ml of Co-EDTA (0.1 g/ml) was infused intraruminally and the animals were then fed. Rumen digesta and duodenal sampling commenced 4 hr after dosing and continued at the same interval for 96 hr. Two samples of rumen fluid were collected: The first rumen fluid samples (30 ml) were preserved for microbial protein estimations by adding 7.5 ml of 0.9% NaCl in 37% formaldehyde solution. The samples were then stored at -20° C. after the preparation of a bacterial pellet by centrifugation at 27,000 g max for 15 min. A portion of the second rumen fluid and faecal samples was dried at 80° C. and ground in a coffee grinder (Braun, Inc. MA) for DM and Cr determination (Uden et al., 1980). Cr concentration in the samples was determined in duplicate by atomic absorption spectrophotometer (Perkin Elmer 560) using Cr standards (Fisher Scientific Co. NJ). The rest of the second rumen fluid sample was centrifuged at 10,000 g max for 10 min and the supernatants analyzed directly for cobalt using 0.1N HCL as the blank. Standards were prepared using cobalt chloride (Fisher Scientific Co. NJ). Marker concentrations were expressed per gram of dry sample. Other analyses included: acid and neutral detergent fibre (Goering and Van Soest, “Forage fiber analysis,” Agric. Handbook No. 379, p. 12 (1970)), total N (Parkinson and Allen, “A wet oxidation procedure suitable for the determination of nitrogen and mineral nutrients in biological materials,” Comm. Soil Sci. Plant Anal. 6:1 (1975)) for RNA concentrations of the rumen bacterial pellets and duodenal samples.

polyoxyethylene sorbitan monoleate [Tween 80]
Digestibility, Acid detergent fibre: 52.68b (0.4) % | Digestibility, Crude protein: 61.25b (0.5) % | Digestibility, Dry matter: 64.70b (0.8) % | Digestibility, Neutral detergent fibre: 60.63b (0.7) % | Increase in digestibility compared to control: 18% | Increase in intake compared to control: 5% | Intake: 2.06b (0.1) % of the body weight
